{"source": "patent US4062835A", "about": "“Pentapeptides and methods for their production” (Parke, Davis & Company, priority 1976, dated 1977)", "system": "LRF (luteinizing hormone release factor) induced luteinizing hormone (LH) release", "test": "In vitro test for LRF antagonist activity in rat anterior pituitary cell cultures", "format": "cell-based", "description": "Pentapeptides of this invention were screened for LRF antagonist activity in vitro using rat anterior pituitary cell cultures as described by Vale et. al. [Endocrinology, 91, 562 (1972)]. The inhibition of LRF (luteinizing hormone release factor) induced luteinizing hormone (LH) release into the culture medium is the endpoint in this in vitro bioassay.", "key": {"[1]": {"conditions": "compound Molar Conc. 1 × 10^-7, LRF 3.5 × 10^-10, rat anterior pituitary cell cultures"}, "[2]": {"conditions": "compound Molar Conc. 3 × 10^-7, LRF 3.5 × 10^-10, rat anterior pituitary cell cultures"}, "[3]": {"conditions": "compound Molar Conc. 5 × 10^-8, LRF 3.5 × 10^-10, rat anterior pituitary cell cultures"}, "[4]": {"conditions": "compound Molar Conc. 6 × 10^-7, LRF 3.5 × 10^-10, rat anterior pituitary cell cultures"}, "[5]": {"conditions": "compound Molar Conc. 1 × 10^-6, LRF 2.5 × 10^-10, rat anterior pituitary cell cultures"}}, "note": "Where no end group is shown, it is not given here.", "data": [{"substance": "LRF: luteinizing hormone releasing factor, formed in the hypothalamus; stimulates secretion of luteinizing hormone; used as the stimulus in the bioassay (QHWSYGLRPG; ends and bridges not checked; UniProt P01148 24-33, looked up) [reference compound]", "values": [{"measurement": "LH Value", "setting": "LRF alone, Molar Conc. 2.5 × 10^-10 (control of second experiment; saline control 7.70)", "value": 36.96, "unit": "ng/mL"}, {"measurement": "LH Value", "setting": "LRF alone, Molar Conc. 3.5 × 10^-10 (control of first experiment; saline control 6.46)", "value": 40.46, "unit": "ng/mL"}]}, {"substance": "N^α -t-Butoxycarbonyl-N^im -benzyl-L-histidyl-O-methyl-L-tyrosyl-O-benzyl-L-seryl-L-tryptophyl-D-alanine N-ethylamide", "values": [{"measurement": "% LH Release Inhibition", "setting": "[1]", "value": 69, "unit": "%"}, {"measurement": "LH Value", "setting": "[1]", "value": 17.2, "unit": "ng/mL"}, {"measurement": "% LH Release Inhibition", "setting": "[2]", "value": 90, "unit": "%"}, {"measurement": "LH Value", "setting": "[2]", "value": 10.16, "unit": "ng/mL"}, {"measurement": "% LH Release Inhibition", "setting": "[3]", "value": 56, "unit": "%"}, {"measurement": "LH Value", "setting": "[3]", "value": 21.61, "unit": "ng/mL"}, {"measurement": "% LH Release Inhibition", "setting": "[4]", "value": 98, "unit": "%"}, {"measurement": "LH Value", "setting": "[4]", "value": 7.72, "unit": "ng/mL"}]}, {"substance": "N^α -t-Butoxycarbonyl-N^im -benzyl-L-histidyl-O-methyl-L-tyrosyl-O-benzyl-L-seryl-L-tryptophyl-D-alanine methyl ester", "values": [{"measurement": "% LH Release Inhibition", "setting": "[5]", "value": 69, "unit": "%"}, {"measurement": "LH Value", "setting": "[5]", "value": 16.89, "unit": "ng/mL"}]}]}
